Measured values reported in patent publication US9290740B2, “Use of basic fibroblast growth factor in the de-differentiation of animal connective tissue cells” (Worcester Polytechnic Institute, priority 2008, dated 2016).
Entries after “also recorded” stand apart in the source; their conditions may differ.

Test system: FGFR1, FGFR2, FGFR3, FGFR4 and FGF2 in adult human dermal fibroblasts
Test: Expression and localization of FGF2 and FGF receptors (RT-PCR, immunocytochemistry)
Assay type: cell-based
Protocol: Adult human fibroblasts (CRL-2352, ATCC) were cultured in conditions of 37° C., 5% CO2, 5% O2 90% N2 were seeded into 24 well plates (BD Falcon) either without substrate or with 15 mm Thermanox® coverslips (Nalge Nunc) at 5,000 cells per well in medium consisting of DMEM with 4 mM fresh L-glutamine: Ham's F12 medium (50:50) supplemented with 1×TCH serum replacement (Protide Pharmaceuticals), 1×ITS-X (Invritrogen), 2% FetalClone III (Hyclone), and 4 ng/ml FGF2 (Chemicon). After 5 days, the cells were washed with DPBS w/o Ca/Mg (Mediatech) and fixed in methanol (−20° C.) for 10 min, washed with DPBS and stored in DPBS at 4° C. until use. For detection of nuclear antigens (Msx-1, Msx-2, Sox-2, Oct-4 and Nanog), enhanced nuclear membrane permeabilization was performed by incubation with 1.5 N HCl for 20 min, followed by 3 washes (5 min) in PBS. For immuno-cytochemistry, cells were washed with PBS/Tween (PBS, MediaTech with 0.05% Tween-20, Biorad) and blocked for 30 min at RT with PBS containing 0.05% Tween, 5% FBS, and 1% BSA). Primary antibodies (1:200 dilution) were added in blocking solution for 30 min at RT. Cells were washed 4× in PBS/Tween and Alexafluor-568 labeled appropriate secondary antibody diluted 1:1000 in blocking solution added for 30 min. Cells were washed 4× in PBS/Tween and stored in PBS at 4 C until image analysis. Antibodies used were: Msx-1 (SantaCruz, sc-17726), Msx-2 (Santa Cruz, sc-17729), Sox-2 (Abeam, ab15830), Oct4 (Santa Cruz, sc-8630), Nanog (abeam ab21624) FGF receptor-1 (Abgent, AP7636a), FGF Receptor-2 (Abgent, AP7636a), FGF2 (N-terminus, Santa Cruz sc-1390), FGF2 (internal, Santa Cruz sc-79), fibroblast specific protein (FSP, Sigma). Coverslips were removed and mounted onto glass slides in 80% glycerol in PBS containing 0.1% Na-Azide and sealed with nail polish. Cells were visualized using at Olympus IX81 inverted microscope with epi-fluorescence using appropriate filters (Semrock, Inc.) and phase contrast. Images were collected using a 12 bit Hamamatzu CCD camera (Model C4742-80-12AG) and images processes using Slidebook®. […]

FGFR4 localization (FGF2 addition): no effect
transcription of FGF receptors or FGF2 itself (regardless of the culture conditions): no significant effect
Substance: FGF2: human recombinant FGF2 (Invitrogen, Chemicon or Protide), basic fibroblast growth factor
localization of FGF2, FGFR1 and FGFR2 (immunocytochemistry) (cells supplemented with FGF2): in the nucleus as well as on the cell surface; also recorded: translocated to the nucleus
